Reference: PMC7686382, “Bioassay-based Corchorus capsularis L. leaf-derived β-sitosterol exerts antileishmanial effects against Leishmania donovani by targeting trypanothione reductase” (Scientific Reports, 2020)

Target: T1, Leishmania donovani trypanothione reductase (LdTryR) (Leishmania donovani, UniProt P39050)
T1 construct: gene TPR; recombinant LdTryR
Assay: spectrophotometric NADPH oxidation assay ([…] nm) on recombinant enzyme, Lineweaver-Burk kinetics
Type: biochemical

T1 sequence (P39050 whole entry): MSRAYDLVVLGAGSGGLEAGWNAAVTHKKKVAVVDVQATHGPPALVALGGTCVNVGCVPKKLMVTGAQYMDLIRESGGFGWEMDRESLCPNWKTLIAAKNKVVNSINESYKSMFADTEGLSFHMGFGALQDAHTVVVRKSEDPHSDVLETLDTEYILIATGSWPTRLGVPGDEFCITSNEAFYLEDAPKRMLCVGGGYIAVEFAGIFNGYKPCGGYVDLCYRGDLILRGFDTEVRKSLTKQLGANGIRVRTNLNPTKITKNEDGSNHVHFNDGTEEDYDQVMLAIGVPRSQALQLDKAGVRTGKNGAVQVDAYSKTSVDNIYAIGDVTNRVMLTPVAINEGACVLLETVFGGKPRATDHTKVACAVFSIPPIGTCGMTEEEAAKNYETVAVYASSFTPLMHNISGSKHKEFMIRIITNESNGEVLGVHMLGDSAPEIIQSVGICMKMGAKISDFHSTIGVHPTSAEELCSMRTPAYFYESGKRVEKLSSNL

In the case of CC[C@H](CC[C@@H](C)[C@H]1CC[C@H]2[C@@H]3CC=C4C[C@@H](O)CC[C@]4(C)[C@H]3CC[C@]12C)C(C)C [β-sitosterolCCL, β-sitosterol], the Ki is reported as 8.43 µM.
